Columns and labels:
Test in all cases: relative viability (nuclei count vs DMSO), 5 days (fraction); higher = more cells survive
[1] = compound: CS(=O)(=O)c1ccc(-c2cnc(N)c(C(=O)Nc3ccccc3)n2)cc1 [VE-821] + CC1(C)CCC(c2ccc(Cl)cc2)=C(CN2CCN(c3ccc(C(=O)NS(=O)(=O)c4ccc(N[C@H](CCN5CCOCC5)CSc5ccccc5)c(S(=O)(=O)C(F)(F)F)c4)cc3)CC2)C1 [Navitoclax] (partner 0.5 µM)
Outline: (§1)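 Nuclei were stained with Hoechst during a one-step fixation (final 0.05% Triton X-100, 1% formaldehyde, 1 ug/ml Hoechst) carried out 5 days after dosing, then counted on 4× images. The cells, lung cancer lines in 1536-well plates, had been dosed by pin tool the day after seeding with one drug alone or a fixed anchor-drug dose plus five library-drug doses (not always all listed) in √10 steps. Relative viability is the nuclei count in treated wells divided by that in vehicle wells, and each value is the median of duplicate plates.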

[2] = compound: CS(=O)(=O)c1ccc(C(=O)Nc2ccc(Cl)c(-c3ccccn3)c2)c(Cl)c1 [Vismodegib] + CCNC(=O)c1noc(-c2cc(C(C)C)c(O)cc2O)c1-c1ccc(CN2CCOCC2)cc1 [Luminespib] (partner 0.01 µM)
Outline: as §1

[3] = compound: CS(=O)(=O)c1ccc(C(=O)Nc2ccc(Cl)c(-c3ccccn3)c2)c(Cl)c1 [Vismodegib] + CS(=O)(=O)N1CCN(Cc2cc3nc(-c4cccc5[nH]ncc45)nc(N4CCOCC4)c3s2)CC1 [Pictilisib] (partner 1 µM)
Outline: as §1

Cell Line | relative viability ([1]; first compound 0.08 µM) | relative viability ([1]; first compound 0.253 µM) | relative viability ([1]; first compound 0.8 µM) | relative viability ([1]; first compound 2.53 µM) | relative viability ([1]; first compound 8 µM) | relative viability ([2]; first compound 0.08 µM) | relative viability ([2]; first compound 0.253 µM) | relative viability ([2]; first compound 0.8 µM) | relative viability ([2]; first compound 2.53 µM) | relative viability ([2]; first compound 8 µM) | relative viability ([3]; first compound 0.8 µM) | relative viability ([3]; first compound 8 µM) | relative viability ([3]; first compound 0.08 µM) | relative viability ([3]; first compound 0.253 µM) | relative viability ([3]; first compound 2.53 µM)
LCLC-97TM1 | 0.58 | 0.546 | 0.418 | 0.494 | 0.43 | 0.699 | 0.725 | 0.746 | 0.76 | 0.826 | 0.125 | 0.158 | – | – | –
LCLC-103H | – | – | – | – | – | 1.03 | 0.968 | 0.93 | 0.884 | 1.07 | 0.574 | 0.646 | 0.606 | 0.533 | 0.633
LK-2 | 0.996 | 0.965 | 0.767 | 1.06 | 0.97 | 0.175 | 0.185 | 0.207 | 0.151 | 0.214 | 0.515 | 0.602 | 0.648 | 0.619 | 0.551
LOU-NH91 | 0.75 | 0.732 | 0.592 | 0.777 | 0.564 | 0.28 | 0.334 | 0.352 | 0.366 | 0.301 | 0.516 | 0.532 | 0.556 | 0.515 | 0.482
LU99A | 0.892 | 0.858 | 0.781 | 0.759 | 0.336 | 0.257 | 0.233 | 0.323 | 0.257 | 0.305 | 0.256 | 0.324 | 0.319 | 0.39 | 0.313
LXF-289 | 1.01 | 0.967 | 0.989 | 1.1 | 1.01 | 0.625 | 0.691 | 0.764 | 0.611 | 0.738 | 0.765 | 0.802 | 0.735 | 0.783 | 0.883
NCI-H23 | 0.856 | 0.797 | 0.553 | 0.747 | 0.491 | 0.25 | – | 0.198 | 0.258 | 0.227 | 0.432 | 0.425 | 0.535 | 0.462 | 0.452
NCI-H322M | 1.24 | – | 1.39 | 1.38 | 1.08 | 0.876 | 0.797 | 0.881 | 0.812 | 0.818 | 0.527 | 0.509 | 0.544 | 0.445 | 0.484
NCI-H358 | – | – | – | – | – | 0.325 | 0.258 | 0.418 | 0.33 | 0.204 | 0.294 | 0.34 | 0.301 | 0.326 | 0.37
NCI-H441 | 0.858 | 0.673 | 0.38 | 0.768 | 0.563 | 0.348 | 0.281 | 0.284 | 0.304 | 0.38 | 0.536 | 0.502 | 0.505 | 0.444 | 0.391
NCI-H460 | 1.23 | 1.01 | 1.02 | 0.646 | 0.159 | 0.0373 | 0.0299 | 0.038 | 0.0291 | 0.0297 | 0.286 | 0.313 | 0.3 | 0.385 | 0.318
NCI-H520 | 1.16 | 1.15 | – | 1.1 | 0.671 | 0.24 | 0.225 | 0.198 | 0.207 | 0.212 | 0.271 | 0.309 | 0.332 | 0.254 | 0.274
NCI-H522 | – | – | – | – | – | 1.1 | 1.1 | 0.939 | 1.34 | 1.09 | – | – | – | – | –
NCI-H596 | 0.72 | 1.05 | 0.987 | 0.894 | 0.644 | 1.04 | 0.96 | 1.15 | 1.05 | 1.02 | 0.391 | 0.397 | 0.385 | 0.404 | 0.391
NCI-H647 | 1.09 | 1.15 | 0.856 | 1 | 0.573 | 0.505 | 0.227 | 0.219 | 0.125 | 0.181 | 0.389 | 0.586 | – | 0.407 | 0.401
NCI-H650 | – | – | – | – | – | 0.843 | 0.791 | 0.638 | 0.802 | 0.865 | 0.643 | 0.947 | 0.799 | 0.733 | 0.945
NCI-H661 | – | – | – | – | – | 0.945 | 0.909 | 0.934 | 0.876 | 0.889 | 0.403 | 0.367 | 0.3 | 0.392 | 0.331
NCI-H727 | 0.478 | 0.57 | 0.411 | 0.546 | 0.216 | 0.428 | 0.518 | 0.322 | 0.359 | 0.422 | 0.277 | 0.402 | 0.525 | 0.395 | 0.257
NCI-H838 | 1.3 | 1.11 | 1.02 | 1.18 | 1.07 | 0.247 | 0.271 | 0.33 | 0.409 | 0.331 | 0.415 | 0.504 | 0.389 | 0.408 | 0.489
NCI-H1299 | 1.05 | 1.04 | 1.01 | 1 | 1.03 | – | – | – | – | – | 0.72 | 0.96 | 0.761 | 0.815 | 0.787
NCI-H1355 | 1.09 | 0.91 | 0.729 | 0.879 | 0.542 | 0.634 | 0.714 | 0.687 | 0.794 | 0.688 | 0.31 | 0.448 | 0.391 | 0.508 | 0.432
NCI-H1395 | – | 1.09 | 1.3 | 1.32 | 0.72 | 0.708 | 0.764 | 0.535 | 0.624 | 0.621 | 0.491 | 0.752 | 0.573 | 0.593 | 0.631
NCI-H1563 | – | – | – | – | – | 0.468 | 0.48 | 0.529 | 0.545 | 0.571 | 0.647 | 0.72 | 0.649 | 0.591 | 0.643
NCI-H1623 | – | – | – | – | – | 0.483 | 0.439 | 0.611 | 0.457 | 0.6 | – | – | – | – | –
NCI-H1703 | 1.25 | 0.923 | 1.17 | 0.394 | 0.246 | – | – | – | – | – | 0.302 | 0.249 | 0.223 | 0.216 | 0.254
NCI-H2342 | – | – | – | – | – | 0.588 | 0.728 | 0.748 | 0.79 | 0.71 | – | – | – | – | –
SW 900 | – | – | – | – | – | 0.183 | 0.164 | 0.164 | 0.19 | 0.163 | – | – | – | – | –
